According to article PMC6792352, “Limited Chemical Structural Diversity Found to Modulate Thyroid Hormone Receptor in the Tox21 Chemical Library” (Environmental Health Perspectives, 2019):
Like-named read-outs stand apart in the source and are kept apart here.

Tests used:
[1] = test system: thyroid hormone receptor (endogenous TRα and TRβ); test: cells; set-up: species or system GH3-TRE-Luc (rat pituitary); GH3-TRE-Luc luciferase reporter transactivation, agonist mode, qHTS; RXR ligands can also activate indirectly; conditions: 24 h, read-out: TR_LUC_GH3_Agonist_AC50 (uM)
[2] = test system: thyroid hormone receptor (TR); test: Classification of TR actives across characterization assays (TR-Ag / RXR-Ag; TR model binary); conditions: for Classification: TR-Ag = TR agonist, RXR-Ag = RXR agonist; for Categorization Code: TR agonist characterization
Outline: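 GH3-TRE qHTS agonist, antagonist and viability modes over 8,305 compounds; 84 candidates rescreened in GH3-TRE-Ag, TRβ- and RXRα-UAS-bla HEK 293T one-hybrid assays, HEK293T viability, and TRα/TRβ coactivator recruitment. Actives classified binary after removing pharmaceuticals.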

in vitro [3] = conditions: rat, gh3-tre-luc cells, AC50 (uM) modified / 1000
[4] = Global cytotoxicity: eighteen Tox21 cell viability assays; format: cell-based; conditions: read-out: Global cytotoxicity AC50 median
[5] = test system: thyroid hormone receptor (endogenous TRα and TRβ); test: GH3-TRE-Ag-Followup confirmation (TOX21_TR_LUC_GH3_Agonist_Followup, aeid 2226); format: cell-based, rat; conditions: for AC50: confirmation, agonist mode, read-out: GH3-TRE-Ag-Followup AC50; for GH3-TRE-Ag-Followup hitc: hit call from tcpl
in vitro [6] = conditions: rat
[7] = test system: thyroid hormone receptor (endogenous TRα and TRβ); test: GH3-TRE-Antag primary qHTS, luciferase reporter, antagonist mode with 1 nM T3 (TOX21_TR_LUC_GH3_Antagonist, aeid 804); format: cell-based, rat; conditions: antagonist mode, 1 nM T3; read-out: GH3-TRE-Antag AC50
[8] = test system: thyroid hormone receptor (endogenous TRα and TRβ); test: GH3-TRE-Ag primary qHTS, luciferase reporter, agonist mode (TOX21_TR_LUC_GH3_Agonist, aeid 803); format: cell-based, rat; conditions: for GH3-TRE-Ag AC50 hitc: hit call from tcpl
[9] = test system: Tox21 cell viability assays (different cell types); test: Global cytotoxicity: eighteen Tox21 cell viability assays; format: cell-based
[10] = GH3-TRE-Via cell viability, CellTiter-Fluor (TOX21_TR_LUC_GH3_Antagonist_viability, aeid 805); conditions: rat
[11] = biological target: T1, TRα ligand-binding domain (Homo sapiens, UniProt P10827); test: TRa-coa LanthaScreen TR-FRET coactivator (SRC-2 peptide) recruitment, agonist (TOX21_TRA_COA_Agonist_Followup_ratio, aeid 2230); format: biochemical; conditions: for AC50: cell-free coactivator recruitment, read-out: TRa-coa-Ag AC50; for TRa-coa hitc: hit call from tcpl, agonist; for Emax: read-out: EMax (% of Control) tra-coa-agonist-followup-1
T1 construct: the receptor LBDs expressed as glutathione S-transferase (GST) fusion proteins; purchased
T1 sequence (P10827 163-410 isoform P10827-2 limits assumed, other chains not shown): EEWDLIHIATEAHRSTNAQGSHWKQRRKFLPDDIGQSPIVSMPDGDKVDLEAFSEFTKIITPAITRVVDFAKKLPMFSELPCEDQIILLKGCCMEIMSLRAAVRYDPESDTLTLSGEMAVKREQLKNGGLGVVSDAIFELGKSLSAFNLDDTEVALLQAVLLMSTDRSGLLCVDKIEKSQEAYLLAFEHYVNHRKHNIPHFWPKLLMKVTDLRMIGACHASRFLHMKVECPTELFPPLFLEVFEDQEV

[12] = biological target: T2, human TRβ ligand-binding domain (Homo sapiens, UniProt P10828); test: TRb-coa LanthaScreen TR-FRET coactivator (SRC-2 peptide) recruitment, agonist (TOX21_TRB_COA_Agonist_Followup_ratio, aeid 2244); format: biochemical; set-up: host or cells: GeneBLAzer UAS-bla HEK 293T; conditions: for AC50: cell-free coactivator recruitment, read-out: TRb-coa-Ag AC50; for TRb-coa hitc: hit call from tcpl, agonist; for Emax: read-out: EMax (% of Control) trb-coa-agonist-followup-1
T2 sequence (P10828 217-461 limits assumed): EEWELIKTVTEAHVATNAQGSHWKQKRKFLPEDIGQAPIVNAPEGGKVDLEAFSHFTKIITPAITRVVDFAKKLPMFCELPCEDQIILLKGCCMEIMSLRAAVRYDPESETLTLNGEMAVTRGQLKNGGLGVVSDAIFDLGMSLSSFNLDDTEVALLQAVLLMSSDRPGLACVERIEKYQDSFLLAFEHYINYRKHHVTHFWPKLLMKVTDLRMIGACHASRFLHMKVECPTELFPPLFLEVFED

[13] = biological target: T2, human TRβ ligand-binding domain; test: TRb-bla agonist mammalian one-hybrid beta-lactamase assay (TOX21_TRB_BLA_Agonist_Followup_ratio, aeid 2236); format: cell-based; set-up: host or cells: GeneBLAzer UAS-bla HEK 293T; conditions: for AC50: HEK 293T one-hybrid, agonist mode, read-out: TRb-bla-Ag AC50; for TRb-bla hitc: hit call from tcpl, agonist; for Emax: read-out: EMax (% of Control) trb-bla-agonist-followup-1
GH3-TRE-Luc cell line = conditions: rat, 24 h
in vitro [14] = test: in vitro; set-up: species or system GH3-TRE-Luc (rat pituitary); CellTiter-Fluor viability run in parallel with antagonist mode (1 nM T3), loss of viability; conditions: rat, gh3-tre-luc cells, 1 nM T3 present
[15] = median over 18 Tox21 cell viability assays (Judson et al. 2016, invitrodb_v2)

Row | Classification [2] | Categorization Code [2] | Structure (SMILES) | AC50 [1] [µM] | AC50 [4, 15] [µM] | AC50 [5] [µM] | AC50 at 24 h [10] [µM] | AC50 [11] [µM] | TRa-coa hitc [11] | Emax [11] [%] | EMax (% of Control) gh3-tre-agonist [8] | GH3-TRE-Ag AC50 hitc [8] | AC50 [12] [µM] | TRb-coa hitc [12] | Emax [12] [%] | GLOBAL CYTOTOXICITY cytotox.number_Active [9] | EMax (% of Control) gh3-tre-agonist-followup-1_agonist [5] | GH3-TRE-Ag-Followup hitc [5] | AC50 [13] [µM] | TRb-bla hitc [13] | Emax [13] [%] | also measured
1 |  |  | Cc1ccc2c(Cl)cc(Cl)c(O)c2n1 [5,7-Dichloro-8-hydroxy-2-methylquinoline] |  |  |  | 1.56 |  |  |  |  |  |  |  |  |  |  |  |  |  |  | AC50 [7]: 1.5 µM; AC50 ([8]; antagonist candidates, inactive samples arbitrarily set to AC50=[…] μM, read-out: GH3-TRE-Ag AC50): > 92 µM; AC50 ([4]; median over 18 Tox21 cell viability assays, inactive set to 1,000): 13.6 µM; Active in global cytotoxicity assays (%) ([9]; percentage of 18 Tox21 viability assays with hitc=1): 13.6%
2 | RXR-Ag | RXR-Ag | CC1=C(/C=C/C(C)=C\C=C\C(C)=C\C(=O)O)C(C)(C)CCC1 [9-cis Retinoic acid, reference compound] |  | > 92 | 2.07 | > 92 | > 92 | 0 | -0.13 | 31.8 % of Control | 1 | > 92 | 0 | -0.274 | 0 | 76.0 % of Control | 1 | > 92 | 0 | 5.7 | GLOBAL CYTOTOXICITY cytotox.median ([9]; median over Tox21 viability assays): >92; TR_LUC_GH3_Antagonist_viability hitc (GH3-TRE-Luc cell line): 0
3 | RXR-Ag | RXR-Ag | CC1=C(/C=C/C(C)=C/C=C/C(C)=C\C(=O)O)C(C)(C)CCC1 [13-cis Retinoic acid, reference compound] |  | 46.3 | 0.0348 | 81.3 | > 92 | 0 | -0.319 | 29.3 % of Control | 1 | > 92 | 0 | -0.0945 | 5 | 46.3 % of Control | 1 | > 92 | 0 | 6.8 | activity in GH3-TRE agonist assay [8]: partial agonist; EMax in GH3-TRE-Ag assay ([8]; percent of positive control T3): 24 % of control; activity in TRb-coa biochemical assay [12]: not active; GLOBAL CYTOTOXICITY cytotox.median [9]: 46.3; activity in TRβ-bla as agonist [13]: not active; TR_LUC_GH3_Antagonist_viability hitc (GH3-TRE-Luc cell line): 1
4 |  |  | CCOP(=O)(OCC)Oc1nc(Cl)c(Cl)cc1Cl [Chlorpyrifos oxon] | > 90 |  |  |  |  |  |  |  |  |  |  |  |  |  |  |  |  |  | CC50 at 24 h (in vitro [14]; AC50 (uM) modified / 1000, Tox21_110001=Tox21_301063, viability): 60.1 µM
5 |  |  | [CH3][Sn]([CH3])([Cl])[Cl] [Dimethyltin dichloride] |  |  |  |  |  |  |  |  |  |  |  |  |  |  |  |  |  |  | CC50 at 24 h (in vitro [14]; AC50 (uM) modified / 1000, Tox21_110001=Tox21_201249, viability): 79.3 µM

Row | Structure (SMILES) | Classification [2] | Categorization Code [2] | AC50 [1] [µM] | AC50 [4, 15] [µM] | AC50 [5] [µM] | AC50 at 24 h [10] [µM] | AC50 [11] [µM] | TRa-coa hitc [11] | Emax [11] [%] | EMax (% of Control) gh3-tre-agonist [8] | GH3-TRE-Ag AC50 hitc [8] | AC50 [12] [µM] | TRb-coa hitc [12] | Emax [12] [%] | GLOBAL CYTOTOXICITY cytotox.number_Active [9] | EMax (% of Control) gh3-tre-agonist-followup-1_agonist [5] | GH3-TRE-Ag-Followup hitc [5] | AC50 [13] [µM] | TRb-bla hitc [13] | Emax [13] [%] | also measured
6 | N[C@@H](Cc1ccc(Oc2cc(I)c(O)c(I)c2)c(I)c1)C(=O)O [3,3ʹ,5ʹ-Triiodo-L-thyronine] | TR-Ag |  | 0.218 | > 92 | 0.537 |  |  |  |  |  |  |  |  |  |  |  |  |  |  |  | CC50 at 24 h (in vitro [3]): > 50 µM; AC50 (in vitro [6]): > 92 µM
